Results from US20090118363A1, “SESAMIN-CLASS COMPOUND-CONTAINING FOODS OR BEVERAGES FOR ANIMALS” (priority 2006, published 2009).

Assay: Test of dissolving sesamin-class compounds into fats and oils (solubility)
Assay type: physicochemical
Description: Solubility of sesamin-class compounds to various fats and oils was determined. Sesamin, episesamin, and a mixture of sesamin and episesamin, sesamin:episesamin=51.1:48.2 (Takemoto Oil and Fat Co., Ltd.), were used as the sesamin-class compounds. The sesamin and the episesamin were prepared by isolating them from the mixture and purifying them. The respective sesamin-class compounds were dissolved into five different kinds of fats and oils, 100 g each, shown in Table 1 to determine a limit amount (solubility) of the respective sesamin-class compounds that can be dissolved completely. It is understood from Table 1 that the sesamin, the episesamin, and the mixture of the sesamin and the episesamin have different solubilities, and that the solubility varies in a manner that depends on the types of the fats and oils.

SMILES | Solubility in fats and oils: DG [%] | Solubility in fats and oils: MCT-1 [%] | Solubility in fats and oils: MCT-2 [%] | Solubility in fats and oils: olive oil [%] | Solubility in fats and oils: wheatgerm oil [%]
c1cc2c(cc1[C@H]1OC[C@H]3[C@@H]1CO[C@@H]3c1ccc3c(c1)OCO3)OCO2 [SESAMIN, sesamin] | 1.25 | 4.0 | 2.0 | 0.75 | 0.75
c1cc2c(cc1[C@H]1OC[C@H]3[C@@H]1CO[C@@H]3c1ccc3c(c1)OCO3)OCO2 [EPISESAMIN, episesamin] | 1.0 | 2.5 | 2.5 | 0.5 | 0.75
